Each structure is given as a SMILES string. Bounds are passed on as bounds.

For this assay, the target named is GST-hRIPK1 (8-327) (Homo sapiens (Human), UniProt Q13546). Briefly: Fluorescent Polarization Binding (FP Binding) assay, RIPK1. The conditions noted are these: 10 nM GST-hRIPK1 (8-327), 5 nM fluorescent-labeled ligand, RT, 30 min, mean of minimum two experiments. The method, then: Fluorescent Polarization Binding (FP Binding) assay (Berger S. B. et al. (2015) Cell Death Discovery, 1: 15009; Maki J. L. et al. (2012) Anal Biochem., 427 (2): 164-174) was performed in polystyrene low volume 384-well black plate, at Room Temperature (RT) in a final volume of 10.1 μL/well using 10 nM of GST-hRIPK1 (8-327) enzyme and 5 nM of fluorescent-labeled ligand (14-(2-{[3-({2-{[4-(cyanomethyl)phenyl]amino}-6-[(5-cyclopropyl-1H-pyrazol-3-yl)amino]-4-pyrimidinyl}amino) propyl]amino}-2-oxoethyl)-16,16,18,18-tetramethyl-6,7,7a,8a,9,10,16,18-octahydrobenzo [2″,3″]indolizino[8″,7″:5′,6′]pyrano [3′,2′:3,4]pyrido[1,2-a]indol-5-ium-2-sulfonate.
Sequence of GST-hRIPK1 (8-327) (Q13546 8-327): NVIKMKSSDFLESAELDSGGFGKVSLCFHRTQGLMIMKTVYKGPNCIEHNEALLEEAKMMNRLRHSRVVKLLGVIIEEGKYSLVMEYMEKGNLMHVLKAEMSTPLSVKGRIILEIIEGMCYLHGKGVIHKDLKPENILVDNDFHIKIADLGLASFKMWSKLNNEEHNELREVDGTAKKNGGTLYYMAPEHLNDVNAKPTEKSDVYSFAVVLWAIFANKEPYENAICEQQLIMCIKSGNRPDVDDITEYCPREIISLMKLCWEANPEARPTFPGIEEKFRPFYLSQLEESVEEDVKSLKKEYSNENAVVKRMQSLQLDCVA
Test compounds were serially diluted in DMSO at 100 fold final concentrations in the assay (1% DMSO final). In each well of a 384-well Plate were dispensed 0.1 μL of compound solution (or DMSO for controls) followed by 5 μL of GST-hRIPK1 (8-327) at twice the final concentrations in assay buffer (50 mM HEPES pH 7.5, 10 mM NaCl, 50 mM MgCl2, 0.02% CHAPS, 0.5 mM DTT and 0.01% Pluronic F127). For negative control the enzyme addition was replaced by assay buffer only.
After addition of 5 μL of fluorescent-labeled ligand at twice the final concentrations in assay buffer, the plate was incubated at RT for […]. At the end, the binding was measured as FP value with the Envision (PerkinElmer) plate reader using filter for an excitation λ=531 nm FP and an emission λ=595 nm FP (S & P-pol).
Test compound inhibition was expressed as percent inhibition of internal assay controls. For concentration response curves, normalized data is fit and IC50 determined using XL-fit (IDBS) for Excel. IC50 were averaged to determine a mean value, for a minimum of two independent experiments.
Receptor interacting protein kinase 1 activity of exemplary compounds was determined according to the above general procedures.
For `CC1(C)CCCN2CCC(c3cncc(F)c3)N2C1=O` (racemic) [Example 1, 3-(5-fluoro-3-pyridyl)-6,6-dimethyl-1,2,3,7,8,9-hexahydropyrazolo[1,2-a]diazepin-5-one], the IC50 was less than 1000 nM.
Regarding `CC1(C)CCCN2CCC(c3cc(F)cc(F)c3)N2C1=O` (single isomer, unassigned) [Example 3, 3-(3,5-difluorophenyl)-6,6-dimethyl-1,2,3,7,8,9-hexahydropyrazolo[1,2-a]diazepin-5-one], the IC50 is less than 1000 nM.
As for `Cc1cnc(C2CCN3CCCC(C)(C)C(=O)N23)cn1` (single isomer, unassigned) [Example 2, 6,6-dimethyl-3-(5-methylpyrazin-2-yl)-1,2,3,7,8,9-hexahydropyrazolo[1,2-a]diazepin-5-one], the figure is less than 1000 nM; as for `Cc1cnc(C2CCN3CCCC(C)(C(F)F)C(=O)N23)cn1` (single isomer, unassigned) [Example 13, 6-(difluoromethyl)-6-methyl-3-(5-methylpyrazin-2-yl)-1,2,3,7,8,9-hexahydropyrazolo[1,2-a]diazepin-5-one], less than 1000 nM; as for `CCC1(C(F)F)CCCN2CCC(c3cnc(C)cn3)N2C1=O` (single isomer, unassigned) [Example 17, 6-(difluoromethyl)-6-ethyl-3-(5-methylpyrazin-2-yl)-1,2,3,7,8,9-hexahydropyrazolo[1,2-a]diazepin-5-one], less than 1000 nM.
With `CC1(C)CCCN2CCC(c3cccc(F)c3)N2C1=O` (single isomer, unassigned) [Example 5, 3-(3-fluorophenyl)-6,6-dimethyl-1,2,3,7,8,9-hexahydropyrazolo[1,2-a]diazepin-5-one], the IC50 was less than 1000 nM.
As for `CC1(C)CCCN2CCC(c3cc(F)cc(C#N)c3)N2C1=O` (stereo not drawn) [Example 6, 3-(6,6-dimethyl-5-oxo-1,2,3,7,8,9-hexahydropyrazolo[1,2-a]diazepin-3-yl)-5-fluoro-benzonitrile], the figure is less than 1000 nM; as for `CCC1(C)COC[C@H]2CC[C@@H](c3cccc(F)c3)N2C1=O` (stereo partly drawn) [Example 8, (7S,9aR)-4-ethyl-7-(3-fluorophenyl)-4-methyl-1,3,7,8,9,9a-hexahydropyrrolo[2,1-c][1,4]oxazepin-5-one], 1000 to 30000 nM.
Under `CCC1(C(F)F)CCCN2CCC(c3cnc(C)cn3)N2C1=O` (racemic) [Example 18, 6-(difluoromethyl)-6-ethyl-3-(5-methylpyrazin-2-yl)-1,2,3,7,8,9-hexahydropyrazolo[1,2-a]diazepin-5-one] stands less than 1000 nM; under `O=C1N2C(c3cncc(F)c3)CCN2CCCC12CC2` (racemic) [Example 16, 3-(5-fluoro-3-pyridyl)spiro[1,2,3,7,8,9-hexahydropyrazolo[1,2-a]diazepine-6,1′-cyclopropane]-5-one], 1000 to 30000 nM.
As for `CC1(C(F)F)CCCN2CCC(c3cncc(C#N)c3)N2C1=O` (single isomer, unassigned) [Example 15, 5-[6-(difluoromethyl)-6-methyl-5-oxo-1,2,3,7,8,9-hexahydropyrazolo[1,2-a]diazepin-3-yl]pyridine-3-carbonitrile], the figure is less than 1000 nM.
`Cc1cnc(C2CCN3CCCC(C)(C(F)F)C(=O)N23)cn1` (single isomer, unassigned) [Example 12, 6-(difluoromethyl)-6-methyl-3-(5-methylpyrazin-2-yl)-1,2,3,7,8,9-hexahydropyrazolo[1,2-a]diazepin-5-one] returned an IC50 of less than 1000 nM.
Under `CC1(C)CCCN2CCC(c3cncc(C#N)c3)N2C1=O` (racemic) [Example 9, 5-(6,6-dimethyl-5-oxo-1,2,3,7,8,9-hexahydropyrazolo[1,2-a]diazepin-3-yl)pyridine-3-carbonitrile] stands less than 1000 nM; under `CC1(C(F)F)CCCN2CCC(c3cncc(C#N)c3)N2C1=O` (single isomer, unassigned) [Example 14, 5-[6-(difluoromethyl)-6-methyl-5-oxo-1,2,3,7,8,9-hexahydropyrazolo[1,2-a]diazepin-3-yl]pyridine-3-carbonitrile], less than 1000 nM; under `CC1(C)CCCN2CCC(c3ccc(F)c(F)c3)N2C1=O` (single isomer, unassigned) [Example 4, 3-(3,4-difluorophenyl)-6,6-dimethyl-1,2,3,7,8,9-hexahydropyrazolo[1,2-a]diazepin-5-one], less than 1000 nM.
As for `CC1(C)CCCN2CCC(c3ccc(C#N)cc3)N2C1=O` (stereo not drawn) [Example 7, 4-(6,6-dimethyl-5-oxo-1,2,3,7,8,9-hexahydropyrazolo[1,2-a]diazepin-3-yl)benzonitrile], the figure is less than 1000 nM.
Under `CC1(C(F)F)CCCN2CCC(c3cncc(F)c3)N2C1=O` (racemic) [Example 11, 6-(difluoromethyl)-3-(5-fluoro-3-pyridyl)-6-methyl-1,2,3,7,8,9-hexahydropyrazolo[1,2-a]diazepin-5-one] stands less than 1000 nM.
Regarding `CC1(C(F)F)CCCN2CCC(c3cncc(F)c3)N2C1=O` (single isomer, unassigned) [Example 10, 6-(difluoromethyl)-3-(5-fluoro-3-pyridyl)-6-methyl-1,2,3,7,8,9-hexahydropyrazolo[1,2-a]diazepin-5-one], the IC50 was less than 1000 nM.

A word on the IC50: it is the point on the concentration scale where inhibition reaches its midpoint.

For the origin of these results see patent US11174262B2, “Compounds, compositions and methods” (Denali Therapeutics Inc., priority 2017, dated 2021).
